What was measured:
Settings in all cases: 2 μM, 24 h, vs DMSO
A-498 cells = assay: IFN/cytokine gene expression (qRT-PCR) and secretion (MSD) in A-498 cells; assay type: cell-based, human
Method: (§1) RNA was isolated using the PureLink kit (#12183018A; Thermo Fisher) and DNA‐binding columns (Rneasy plus kit, #74134; Qiagen) and/or Dnase treatment (#12185010; Thermo Fisher). After quantification using NanoDrop, 50 ng·μL^−1 RNA was used for cDNA synthesis with SuperScript IV VILO Master Mix (#11756050; Thermo Fisher). Quantitative RT‐PCR was run with diluted cDNA (1 : 25 or 1 : 12.5), PowerUp SYBR Green Master Mix (#A25741; Thermo Fisher), and 200 nM primers (see Table S3) on a CFX Connect RT‐PCR system (BioRad, Hercules, CA, USA). Data were analyzed using the ΔΔCT method.
(§2) Cell culture medium was centrifuged at 300 g for 10 min at 4 °C and supernatant stored at −80 °C. Mouse blood was collected at termination in K2‐EDTA tubes on ice, centrifuged at 1270 g for 10 min at 4 °C, and plasma was stored at −80 °C. Cytokine levels were quantified using Mesoscale Discovery (MSD) assays: human CCL5 (#F21ZN), CXCL10 (#K151UFK), IFNβ (#K151VIK); mouse CCL5 (#K152A2K) and CXCL10 (#K152UFK). Low concentrations of human IFNβ were determined using High‐Sensitivity IFNβ ELISA (#41415‐1; PBL Assay Science, Piscataway, NJ, USA). CCL5/CXCL10 levels in some experiments were quantified using R&D Systems (Minneapolis, MN, USA) ELISAs: human CCL5 (#DY278) or CXCL10 (#DY266); mouse CCL5 (#DY478).

Me30966 cells = assay: Gene expression (qRT-PCR) in Me30966 cells; assay type: cell-based, human
Method: (A) IFNB1 gene expression quantified by qRT-PCR after 24h treatment with DMSO control or 2 µM of VPS34 inhibitor
(=VPS34i, SB02024 or SAR405) in Me30966 cells.

B16-F10 cells = assay: IFN/cytokine gene expression (qRT-PCR) and secretion (MSD) in B16-F10 cells; assay type: cell-based, murine
Method: as §1, §2

C[C@@H]1COCCN1c1cc(=O)n2c(n1)N(Cc1cncc(Cl)c1)[C@H](C(F)(F)F)CC2 [SAR405, reference compound]
significantly increased: transcription of IFNB1 and ISGs IRF1, IRF7, IRF9 (A-498 cells) | IFNB1 expression (Me30966 cells) | transcription of IFNB1 and ISGs IRF1, IRF7, IRF9 (B16-F10 cells)

Source: publication PMC11306511, “Combining VPS34 inhibitors with STING agonists enhances type I interferon signaling and anti‐tumor efficacy” (Molecular Oncology, 2024)
